PubChem BioAssay AID330 (DTP/NCI, 2004)
Several values for one entry are separate records, joined by “and”; a condition that tells them apart may be missing. Identical values can stand only once. Inconclusive results and toxic doses are left out. Rule for the calls: active = survival T/C of 150% or more; inactive = T/C below 125% in these data.

Tested on: P388 leukemia ip, CD2F1 mice, survival T/C
Experiment: NCI In Vivo Anticancer Drug Screen. Data for tumor model P388 Leukemia (intraperitoneal) in CD2F1 (CDF1) mice
Settings: endpoint: median survival time, higher = longer survival
Outline: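 Mice carrying the transplanted tumor received test compound or vehicle. Survival was recorded in each group, and the value is the treated-group measurement divided by that of the vehicle-treated control group.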

[1] = dose: 50.0 mg/kg/injection, schedule: Q01DX009 (ip), vehicle: saline with Tween-80
[2] = dose: 50.0 mg/kg/injection, schedule: Q01DX009 (ip), vehicle: saline
[3] = dose: 100.0 mg/kg/injection, schedule: Q01DX009 (ip), vehicle: saline with Tween-80
[4] = dose: 200.0 mg/kg/injection, schedule: Q01DX009 (ip), vehicle: saline with Tween-80
[5] = dose: 60.0 mg/kg/injection, schedule: Q01DX005 (ip), vehicle: saline with Tween-80
[6] = dose: 120.0 mg/kg/injection, schedule: Q01DX005 (ip), vehicle: saline with Tween-80
[7] = dose: 240.0 mg/kg/injection, schedule: Q01DX005 (ip), vehicle: saline with Tween-80
[8] = dose: 25.0 mg/kg/injection, schedule: Q01DX009 (ip), vehicle: saline with Tween-80
[9] = dose: 50.0 mg/kg/injection, schedule: Q01DX005 (ip), vehicle: saline with Tween-80
[10] = dose: 100.0 mg/kg/injection, schedule: Q01DX005 (ip), vehicle: saline with Tween-80

Measured: T/C

O=C1CSC(=O)N1c1cccc(Cl)c1
inactive: dose: 1.56 mg/kg/injection, schedule: Q01DX009 (ip), vehicle: saline 99 % of control and 97 % of control | dose: 3.12 mg/kg/injection, schedule: Q01DX009 (ip), vehicle: saline 100 % of control and 103 % of control | dose: 6.25 mg/kg/injection, schedule: Q01DX009 (ip), vehicle: saline 90 % of control and 96 % of control | [1] 106 % of control | [2] 89 % of control

O=[N+]([O-])c1ccc(O)cc1C=NCCSc1ccc(Cl)cc1
inactive: [1] 100 % of control | [3] 100 % of control | [4] 103 % of control

COc1ccc2c(c1OC)C1N(C)CCc3cc4c(cc3C1(OC)C2=O)OCO4 (centres undefined)
inactive: [5] 93 % of control | [6] 88 % of control | [7] 93 % of control

Clc1nc2nc[nH]c2nc1Cl
inactive: dose: 11.0 mg/kg/injection, schedule: Q01DX009 (ip), vehicle: saline with Tween-80 100 % of control | dose: 16.5 mg/kg/injection, schedule: Q01DX009 (ip), vehicle: saline with Tween-80 104 % of control | [8] 100 % of control | dose: 25.0 mg/kg/injection, schedule: Q04DX003 (ip), vehicle: saline with Tween-80 91 % of control | dose: 37.5 mg/kg/injection, schedule: Q01DX009 (ip), vehicle: saline with Tween-80 100 % of control

Nc1cn(C2OC(CO)C(O)C2O)c(=O)[nH]c1=O (centres undefined)
inactive: [8] 95 % of control | [1] 92 % of control

CCCCOP(=O)(OCCCC)C(CC(=O)N(CCCC)CCCC)C(=O)N(CCCC)CCCC (centres undefined)
inactive: [9] 98 % of control | [10] 102 % of control

O=C(O)CC(O)(CC(=O)O)C(=O)O.O=C(O)CC(O)(CC(=O)O)C(=O)O.[O]=[Mo]1[O][Mo](=[O])[O]1
inactive: dose: 25.0 mg/kg/injection, schedule: Q01DX009 (ip), vehicle: saline 93 % of control

Cc1cc2n[se]nc2cc1C
inactive: dose: 6.25 mg/kg/injection, schedule: Q01DX009 (ip), vehicle: Klucel (hydroxypropylcellulose) (HPC) 107 % of control | dose: 12.5 mg/kg/injection, schedule: Q01DX009 (ip), vehicle: Klucel (hydroxypropylcellulose) (HPC) 96 % of control | dose: 25.0 mg/kg/injection, schedule: Q01DX009 (ip), vehicle: Klucel (hydroxypropylcellulose) (HPC) 100 % of control

c1ccc(Cn2cccc/c2=N/C(=NC2CCCCC2)NC2CCCCC2)cc1
inactive: dose: 1.56 mg/kg/injection, schedule: Q01DX001 (ip), vehicle: Klucel (hydroxypropylcellulose) (HPC) 105 % of control | dose: 3.12 mg/kg/injection, schedule: Q01DX001 (ip), vehicle: Klucel (hydroxypropylcellulose) (HPC) 99 % of control | dose: 6.25 mg/kg/injection, schedule: Q01DX001 (ip), vehicle: Klucel (hydroxypropylcellulose) (HPC) 99 % of control | dose: 25.0 mg/kg/injection, schedule: Q01DX001 (ip), vehicle: Klucel (hydroxypropylcellulose) (HPC) 98 % of control

O=C1OCC[C@@H]1O
inactive: dose: 60.0 mg/kg/injection, schedule: Q01DX005 (ip), vehicle: saline 101 % of control | dose: 120.0 mg/kg/injection, schedule: Q01DX005 (ip), vehicle: saline 101 % of control | dose: 240.0 mg/kg/injection, schedule: Q01DX005 (ip), vehicle: saline 97 % of control

CC(C)=CCCC(C)C1CCC2(CO2)C2CC=C(C)C2C1O (centres undefined)
inactive: dose: 20.0 mg/kg/injection, schedule: Q01DX009 (ip), vehicle: Klucel (hydroxypropylcellulose) (HPC) 102 % of control | dose: 40.0 mg/kg/injection, schedule: Q01DX009 (ip), vehicle: Klucel (hydroxypropylcellulose) (HPC) 96 % of control | dose: 80.0 mg/kg/injection, schedule: Q01DX009 (ip), vehicle: Klucel (hydroxypropylcellulose) (HPC) 102 % of control | dose: 160.0 mg/kg/injection, schedule: Q01DX009 (ip), vehicle: Klucel (hydroxypropylcellulose) (HPC) 99 % of control

CC(C)(C)OC(=O)C(Cc1cnc2nc(N)nc(N)c2n1)C(=O)OC(C)(C)C
inactive: dose: 3.13 mg/kg/injection, schedule: Q01DX009 (ip), vehicle: distilled water + Tween-80 103 % of control | dose: 6.25 mg/kg/injection, schedule: Q01DX009 (ip), vehicle: distilled water + Tween-80 98 % of control | dose: 12.5 mg/kg/injection, schedule: Q01DX009 (ip), vehicle: distilled water + Tween-80 95 % of control | dose: 25.0 mg/kg/injection, schedule: Q01DX009 (ip), vehicle: distilled water + Tween-80 95 % of control | dose: 50.0 mg/kg/injection, schedule: Q01DX009 (ip), vehicle: distilled water + Tween-80 93 % of control

O=C(NCCc1ccccc1)c1ccccc1
inactive: dose: 50.0 mg/kg/injection, schedule: Q04DX003 (ip), vehicle: saline with Tween-80 100 % of control | dose: 100.0 mg/kg/injection, schedule: Q04DX003 (ip), vehicle: saline with Tween-80 90 % of control | dose: 200.0 mg/kg/injection, schedule: Q04DX003 (ip), vehicle: saline with Tween-80 95 % of control | dose: 400.0 mg/kg/injection, schedule: Q04DX003 (ip), vehicle: saline with Tween-80 100 % of control

c1ccc2cc3cc(N=Nc4ccc5cc6ccccc6cc5c4)ccc3cc2c1
inactive: dose: 100.0 mg/kg/injection, schedule: Q04DX002 (ip), vehicle: saline with Tween-80 108 % of control | dose: 200.0 mg/kg/injection, schedule: Q04DX002 (ip), vehicle: saline with Tween-80 104 % of control | dose: 400.0 mg/kg/injection, schedule: Q04DX002 (ip), vehicle: saline with Tween-80 106 % of control

CN1CCC(CNc2ccccc2)CC1
inactive: dose: 7.5 mg/kg/injection, schedule: Q01DX005 (ip), vehicle: saline 98 % of control | dose: 15.0 mg/kg/injection, schedule: Q01DX005 (ip), vehicle: saline 98 % of control

CS1(C)=NC(=O)c2cc([N+](=O)[O-])ccc2N=1
inactive: [5] 94 % of control | [6] 94 % of control | [7] 92 % of control

S=C(CC(=S)N1CCOCC1)N1CCOCC1
inactive: [5] 103 % of control | [6] 89 % of control | [7] 97 % of control

C/C=C(\C)C(=O)OC1C2C(C)=CC(O)C(O)C2(C)C2C3(O)OCC24C1OC(=O)C(O)C4C(C)C3O (centres undefined)
inactive: dose: 2.5 mg/kg/injection, schedule: Q01DX005 (ip), vehicle: Klucel (hydroxypropylcellulose) (HPC) 108 % of control | dose: 5.0 mg/kg/injection, schedule: Q01DX005 (ip), vehicle: Klucel (hydroxypropylcellulose) (HPC) 102 % of control | dose: 10.0 mg/kg/injection, schedule: Q01DX005 (ip), vehicle: Klucel (hydroxypropylcellulose) (HPC) 100 % of control | dose: 20.0 mg/kg/injection, schedule: Q01DX005 (ip), vehicle: Klucel (hydroxypropylcellulose) (HPC) 105 % of control

CCOP(=O)(O)C1CCCC(C)[N-]1.CCOP(=O)(O)C1CCCC(C)[N-]1.CCOP(=O)(O)C1CCCC(C)[N-]1.[Fe+3] (centres undefined)
inactive: dose: 12.5 mg/kg/injection, schedule: Q04DX003 (ip), vehicle: saline 91 % of control | dose: 25.0 mg/kg/injection, schedule: Q04DX003 (ip), vehicle: saline 95 % of control | dose: 50.0 mg/kg/injection, schedule: Q04DX003 (ip), vehicle: saline 94 % of control | dose: 400.0 mg/kg/injection, schedule: Q04DX003 (ip), vehicle: saline 86 % of control

c1ccc(C2CO2)cc1 (centres undefined)
inactive: dose: 100.0 mg/kg/injection, schedule: Q01DX001 (ip), vehicle: Klucel (hydroxypropylcellulose) (HPC) 106 % of control | dose: 200.0 mg/kg/injection, schedule: Q01DX001 (ip), vehicle: Klucel (hydroxypropylcellulose) (HPC) 100 % of control | dose: 400.0 mg/kg/injection, schedule: Q01DX001 (ip), vehicle: Klucel (hydroxypropylcellulose) (HPC) 102 % of control

CC(/C=C/c1ccc(Cl)c(Cl)c1)=N\NC(N)=S
inactive: [5] 121 % of control

CC(C)(C)C(=O)CC(Cc1nccc2ccccc12)c1ccco1 (centres undefined)
inactive: [1] 113 % of control | [3] 106 % of control | [4] 97 % of control

O=C(NC[N+]12CCO[B-]1(c1ccc(Cl)cc1)OCC2)c1ccccc1O (centres undefined)
inactive: dose: 50.0 mg/kg/injection, schedule: Q01DX005 (ip), vehicle: Klucel (hydroxypropylcellulose) (HPC) 106 % of control | dose: 100.0 mg/kg/injection, schedule: Q01DX005 (ip), vehicle: Klucel (hydroxypropylcellulose) (HPC) 98 % of control | dose: 200.0 mg/kg/injection, schedule: Q01DX005 (ip), vehicle: Klucel (hydroxypropylcellulose) (HPC) 103 % of control

O=C1NC(=O)c2cc3ccccc3cc21
inactive: [9] 87 % of control | [10] 87 % of control | dose: 200.0 mg/kg/injection, schedule: Q01DX005 (ip), vehicle: saline with Tween-80 91 % of control

CC1=CC(O)CC(C)(C)C1 (centres undefined)
inactive: [2] 106 % of control | dose: 100.0 mg/kg/injection, schedule: Q01DX009 (ip), vehicle: saline 100 % of control | dose: 200.0 mg/kg/injection, schedule: Q01DX009 (ip), vehicle: saline 99 % of control
